Results from patent publication US12649768B2, “Recombinant expression vector for high expression of brazzein in Saccharomyces cerevisiae and method for mass-production of brazzein using the same” (CHUNG-ANG UNIVERSITY INDUSTRY-ACADEMIC COOPERATION …, priority 2021, dated 2026).
No end group written: not given here.

Key:
[1] = Brazzein sweetness activity by ascending taste test with a trained human panel; type: in vivo, humans; details: threshold concentration at which sweetness is first felt, 500 μl samples tasted from low to high concentration
Experimental: Since brazzein is a protein rather than a sugar, it is not possible to measure sweetness using a saccharimeter. Therefore, the activity was measured using a taste test that measures the activity of brazzein by allowing humans to directly taste brazzein. First, brazzein was dissolved in distilled water such that the final concentration was 1.0 mg/mL, samples were prepared by varying the test concentration so as to be 30 to 0.05 ng/mL, a threshold value for feeling the sweetness for the first time was obtained by tasting the sweetness of the solution, […] The specific activity measurement method was performed as follows.
A panel of a total of 20 males and 10 females trained in the sweetness test was configured. Prior to the activity measurement, the subjects were informed of the test date and time in advance to sample the taste in their best conditions, and were prohibited from drinking alcohol on the day before the test and eating food, smoking, and the like immediately before the test. The subjects trained in advance rinsed their mouths with prepared secondary distilled water and obtained the concentration at which the sweetness was first felt while sampling the taste of 500 μl of each sample according to the concentration of each type in the order of low concentration to high concentration. […]

[2] = versus 2% sugar solution, cited from earlier work

K. lactis wild-type brazzein: wild-type brazzein expressed in K. lactis, used as the sweetness comparison (QDKCKKVYENYPVSKCQLANQCNYDCKLDKHARSGECFYDEKRNLQCICDYCEY; ends and bridges not checked; cysteine pairing not given here; UniProt P56552 1-54, looked up) [reference compound]
sweetness activity relative to the same mass of sucrose [1]: 2,309 (±6.8%) fold

Brazzein: natural sweet protein of 54 amino acid residues, 6.5 kDa, from the fruit of Pentadiplandra brazzeana Baillon (QDKCKKVYENYPVSKCQLANQCNYDCKLDKHARSGECFYDEKRNLQCICDYCEY; UniProt P56552 1-54, looked up)
sweetness relative to a 2% sugar solution, on a molar basis ([2]; molar basis): ~9500 fold
sweetness relative to a 2% sugar solution, on a molecular weight basis ([2]; molecular weight basis): about 2000 fold

S. cerevisiae wild-type brazzein: wild-type brazzein (SEQ ID NO: 3) secreted and expressed in Saccharomyces cerevisiae with the pESC-Brazzein vector (DKCKKVYENYPVSKCQLANQCNYDCKLDKHARSGECFYDEKRNLQCICDYCEY)
sweetness activity relative to the same mass of sucrose [1]: about 2,260 (±5.9%) fold
